Assay results published in US20230104283A1, “JNK INHIBITOR, AND PHARMACEUTICAL COMPOSITION AND USE THEREOF” (WUHAN LL SCIENCE AND TECHNOLOGY DEVELOPMENT CO. , LTD, priority 2019, published 2023).

Legend:
[1] = system: RAW264.7 phosphorylated c-Jun (Ser63); assay: RAW264.7 phosphorylated c-Jun whole cell assay; type: cell-based; conditions: Mus musculus; cytological assay, activity level; lipopolysaccharide-activated RAW264.7 cells, phospho-c-Jun (Ser63) ELISA
Description: RAW264.7 (ATCC TIB-71) cells were purchased from BeNa Culture Collection and maintained in a high-glucose DMEM medium (Gibco) containing 10% fetal bovine serum (Gibco) and 1% penicillin-streptomycin (Gibco). All cells were cultured at 37° C. in 95% air and 5% CO2. All cells were seeded into 120 μL of cell culture medium in a 96-well plate at a density of 2×10^5 cells per well. The stock solution of compound (15 mM) was serially diluted in DMSO (Sigma) and further diluted in growth medium, and it was then added at 15 μL per well as a 10× concentrated solution, well mixed with the cells and incubated with the cells for 30 min. Concentration of the compound vehicle (DMSO) in each well was 0.2%. After incubation for 30 min, the cells were activated with […] lipopolysaccharide (Sigma). Lipopolysaccharide was added to the growth medium as a 10× concentrated solution at 15 μL per well. The cell plate was incubated for 1 h, and then all the medium was removed. The level of C-Jun protein with phosphorylation of serine at site 63 was measured using the whole cell lysate kit-phosphorylated C-Jun assay (PathScan® Phospho-c-Jun (Ser63) Sandwich ELISA Kit) (CST, 7145C) according to the manufacturer's instructions.

[2] = target: T1, JNK1 kinase (Homo sapiens, UniProt P45983); assay: JNK1 activity screening (time-resolved fluorometric HTRF kinase assay); type: biochemical; conditions: enzymatic assay, activity level
T1 construct: purchased Carna Biosciences 04-163
Description: JNK1 activity screening. JNK1 activity was detected using a 96-well (Cisbio, 66PL96025) time-resolved fluorometric assay. The JNK1 assay was conducted in the following assay buffer: 10 mM MgCl2 (Sigma, M1028), 1 mM MnCl2 (Sigma, M1787), 1 mM DTT (Sigma, D0632) and 1× Enzymatic buffer/kinase (Cisbio, 62EZBFDC). By using the assay buffer, 3 μL of 0.1 ng/μL JNK1 kinase (Carna Biosciences, 04-163) was added to a 96-well microplate, and then 4 μL of a compound diluted appropriately (with a DMSO content of 2.5%) was added. The resulting mixture was incubated at room temperature for 0.5 h. To start the reaction, the assay buffer was used to mix 0.003 μM ATP (Aladdin, A7699) and 30 μM substrate ATF2-GST fusion (Cisbio, 64CUS000AFPEB), and 3 μL of the mixed solution was added to the microplate. The resulting mixture was incubated at room temperature for 2.5 h. HTRF detection buffer ([…], 62SDBRDD) was used then to prepare a mixture of 5 μg/mL MAb Anti GST-XL665 (Cisbio, 61GSTXLA) and 0.045 μg/mL PAb Anti-phospho ATF2-K (Cisbio, 61P12KAZ), and 10 μL of the mixture was added to the plate to terminate the reaction. After incubation for about 12 h, the plate was read on a Perkin-Elmer Envision reader.

T1 sequence (P45983 whole entry): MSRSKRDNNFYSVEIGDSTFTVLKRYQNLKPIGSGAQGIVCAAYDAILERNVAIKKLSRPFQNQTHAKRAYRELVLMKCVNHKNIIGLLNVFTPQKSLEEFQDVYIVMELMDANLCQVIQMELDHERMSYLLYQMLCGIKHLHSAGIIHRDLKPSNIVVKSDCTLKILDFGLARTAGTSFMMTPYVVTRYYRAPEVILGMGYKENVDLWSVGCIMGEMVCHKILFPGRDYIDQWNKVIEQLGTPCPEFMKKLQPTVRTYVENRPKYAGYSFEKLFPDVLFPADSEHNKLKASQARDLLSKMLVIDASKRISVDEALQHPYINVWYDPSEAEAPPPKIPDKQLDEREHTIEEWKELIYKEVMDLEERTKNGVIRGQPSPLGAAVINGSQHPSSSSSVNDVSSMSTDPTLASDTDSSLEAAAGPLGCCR

Row | Structure (SMILES) | IC50 [1] [µM] | IC50 [2] [µM]
1 | CS(=O)(=O)CCn1ccc(Nc2ccnc(N[C@H]3CC[C@H](O)CC3)n2)n1 [Compound T037, (1R,4R)-4-((4-((1-(2-(methylsulfonyl)ethyl)-1H-pyrazol-3-yl)amino)pyrimidin-2-yl)amino)cyclohexan-1-ol] | > 1 | > 1
2 | CS(=O)(=O)CCn1nccc1Nc1ccnc(N[C@H]2CC[C@H](O)CC2)n1 [Compound T038, (1R,4R)-4-((4-((1-(2-(methylsulfonyl)ethyl)-1H-pyrazol-5-yl)amino)pyrimidin-2-yl)amino)cyclohexan-1-ol] | > 1 | > 1
3 | C[C@@H]1CC[C@@H](Nc2nc(O[C@H]3CC[C@H](O)CC3)ncc2C(N)=O)C[C@H]1O [Compound T039, 4-(((1R,3R,4R)-3-hydroxy-4-methylcyclohexyl)amino)-2-(((1R, 4R)-4-hydroxycyclohexyl)oxy) pyrimidine-5-carboxamide] | > 1 | 0.1 to 0.5
4 | COc1ccc(Oc2ncc(C(N)=O)c(N[C@@H]3CC[C@@H](C)[C@H](O)C3)n2)cc1 [Compound T040, 4-(((1R,3R,4R)-3-hydroxy-4-methylcyclohexyl)amino)-2-(4-methoxyphenoxy)pyrimidine-5-carboxamide] | 0.5 to 1 | 0.1 to 0.5
5 | C[C@@H]1CC[C@@H](Nc2nc(OC3CC3)ncc2C(N)=O)C[C@H]1O [Compound T042, 2-cyclopropoxy-4-(((1R,3R,4R)-3-hydroxy-4-methylcyclohexyl)amino) pyrimidine-5-carboxamide] | > 1 | 0.5 to 1
6 | C[C@@H]1CC[C@@H](Nc2nc(OC(C)(C)C)ncc2C(N)=O)C[C@H]1O [Compound T043, 2-(tert-butoxy)-4-(((1R,3R,4R)-3-hydroxy-4-methylcyclohexyl)amino) pyrimidine-5-carboxamide] | > 1 | 0.5 to 1
7 | C[C@@H]1CC[C@@H](Nc2cc(NC3CCC(O)C3)ncc2C(N)=O)C[C@H]1O (stereo partly drawn) [Compound T048, 4-(((1R,3R,4R)-3-hydroxy-4-methylcyclohexyl)amino)-6-((3-hydroxycyclopentyl)amino) nicotinamide] | > 1 | 0.5 to 1
8 | C[C@@H]1CC[C@@H](Nc2cc(NC3CCC3)ncc2C(N)=O)C[C@H]1O [Compound T049, 6-(cyclobutylamino)-4-(((1R,3R,4R)-3-hydroxy-4-methylcyclohexyl)amino) nicotinamide] | > 1 | 0.5 to 1
9 | C[C@@H]1CC[C@@H](Nc2cc(NC3CCC3O)ncc2C(N)=O)C[C@H]1O (stereo partly drawn) [Compound T050, 4-(((1R,3R,4R)-3-hydroxy-4-methylcyclohexyl)amino)-6-((2-hydroxycyclobutyl)amino)nicotinamide] | > 1 | 0.5 to 1
10 | C[C@@H]1CC[C@@H](Nc2cc(NC3CC(O)C3)ncc2C(N)=O)C[C@H]1O (stereo partly drawn) [Compound T051, 4-(((1R,3R,4R)-3-hydroxy-4-methylcyclohexyl)amino)-6-((3-hydroxycyclobutyl)amino)nicotinamide] | > 1 | 0.5 to 1
11 | C[C@@H]1CC[C@@H](Nc2cc(NC3CCC(O)CC3)ncc2C(N)=O)C[C@H]1O (stereo partly drawn) [Compound T052, 4-(((1R,3R,4R)-3-hydroxy-4-methylcyclohexyl)amino)-6-((4-hydroxycyclohexyl)amino) nicotinamide] | > 1 | 0.5 to 1

Second part, the compound after the results:

Row | IC50 [1] [µM] | IC50 [2] [µM] | Structure (SMILES)
12 | > 1 | 0.5 to 1 | C[C@@H]1CC[C@@H](Nc2nc(NC(C)(C)C)ncc2C(=O)N2CC2)C[C@H]1O [Compound T027, Aziridin-1-yl(2-(tert-butylamino)-4-(((1R, 3R,4R)-3-hydroxy-4-methylcyclohexyl)amino)pyrimidin-5-yl)methanone]
13 | > 1 | > 1 | C[C@@H]1CC[C@@H](Nc2nc(NC(C)(C)C)ncc2C(F)F)C[C@H]1O [Compound T028, (1R,2R,5R)-5-((2-(tert-butylamino)-5-(difluoromethyl)pyrimidin-4-yl)amino)-2-methylcyclohex-1-ol]
14 | > 1 | > 1 | COc1cnc(NC(C)(C)C)nc1N[C@@H]1CC[C@@H](C)[C@H](O)C1 [Compound T029, (1R,2R,5R)-5-((2-(tert-butylamino)-5-methoxypyrimidin-4-yl)amino)-2-methylcyclohex-1-ol]
15 | > 1 | > 1 | C[C@@H]1CC[C@@H](Nc2nc(NC(C)(C)C)ncc2CF)C[C@H]1O [Compound T030, (1R,2R,5R)-5-((2-(tert-butylamino)-5-(fluoromethyl)pyrimidin-4-yl)amino)-2-methylcyclohex-1-ol]
16 | > 1 | > 1 | C[C@@H]1CC[C@@H](Nc2nc(NC(C)(C)C)ncc2S(N)(=O)=O)C[C@H]1O [Compound T031, 2-(tert-butylamino)-4-(((1R,3R,4R)-3-hydroxy-4-methylcyclohexyl)amino) pyrimidine-5-sulfamide]
17 | > 1 | > 1 | C[C@@H]1CC[C@@H](Nc2nc(NC(C)(C)C)ncc2O)C[C@H]1O [Compound T032, 2-(tert-butylamino)-4-(((1R,3R,4R)-3-hydroxy-4-methylcyclohexyl)amino) pyrimidine-5-ol]
18 | 0.5 to 1 | < 0.1 | C[C@@H]1CC[C@@H](Nc2nc(NC(C)(C)C)ncc2Br)C[C@H]1O [Compound T033, (1R,2R,5R)-5-((5-bromo-2-(tert-butylamino)pyrimidin-4-yl)amino)-2-methylcyclohexan-1-ol]
19 | > 1 | > 1 | C[C@@H]1CC[C@@H](Nc2nc(NC(C)(C)C)ncc2-n2ccnc2)C[C@H]1O [Compound T034, (1R,2R,5R)-5-((2-(ter-butylamino)-5-(1H-imidazol-1-yl)pyrimidin-4-yl)amino)-2-methylcyclohex-1-ol]
20 | 0.5 to 1 | 0.1 to 0.5 | C[C@@H]1CC[C@@H](Nc2nc(NC(C)(C)C)ncc2-n2cncn2)C[C@H]1O [Compound T035, (1R,2R,5R)-5-((2-(tert-butylamino)-5-(1H-1,2,4-triazol-1-yl)pyrimidin-4-yl)amino)-2-methylcyclohexan-1-ol]
21 | 0.5 to 1 | 0.1 to 0.5 | C[C@@H]1CC[C@@H](Nc2nc(NC(C)(C)C)ncc2-n2ccnn2)C[C@H]1O [Compound T036, (1R,2R,5R)-5-((2-(tert-butylamino)-5-(1H-1,2,3-triazol-1-yl)pyrimidin-4-yl)amino)-2-methylcyclohexan-1-ol]
22 | > 1 | > 1 | C[C@@H]1CC[C@@H](Nc2cc(NC(C)(C)C)ncc2C#N)C[C@H]1O [Compound T044, 6-(tert-butylamino)-4-(((1R,3R,4R)-3-hydroxy-4-methylcyclohexyl)amino) nicotinonitrile]
23 | > 1 | > 1 | C[C@@H]1CC[C@@H](Nc2cc(NC(C)(C)C)ncc2C(N)=O)C[C@H]1O [Compound T045, 6-(tert-butylamino)-4-(((1R,3R,4R)-3-hydroxy-4-methylcyclohexyl)amino) nicotinamide]
24 | > 1 | 0.5 to 1 | C[C@@H]1CC[C@@H](Nc2cc(NCCO)ncc2C(N)=O)C[C@H]1O [Compound T046, 4-(((1R,3R,4R)-3-hydroxy-4-methylcyclohexyl)amino)-6-((2-hydroxyethyl)amino)nicotinamide]
25 | > 1 | 0.5 to 1 | CC(C)Nc1cc(N[C@@H]2CC[C@@H](C)[C@H](O)C2)c(C(N)=O)cn1 [Compound T047, 4-(((1R,3R,4R)-3-hydroxy-4-methylcyclohexyl)amino)-6-(isopropylamino)nicotinamide]
